Experimental data published in patent US20250034135A1, “ANTI-APOPTOTIC PROTEIN BCL-2 INHIBITOR, PHARMACEUTICAL COMPOSITION AND USES THEREOF” (HANGZHOU HEALZEN THERAPEUTICS CO., LTD., priority 2021, published 2025).

Target: BCL2 (Homo sapiens (Human), UniProt P10415)
Assay: Molecular level activity test of anti-apoptotic protein BCL2 (HTRF, binding to Bim peptide)
Conditions: HTRF, binding of BCL2 to Bim peptide; read-out: BCL2 nM (inhibitory activity, IC50)
Summary of the method: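 Signal comes from proximity of anti-His-labelled BCL2 and streptavidin-XL665-bound biotin-BIM peptide. Test compounds, added in 2% DMSO, were preincubated with protein and peptide for one hour; detection reagents then incubated four hours at room temperature before reading.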

BCL2, sequence (P10415 whole entry): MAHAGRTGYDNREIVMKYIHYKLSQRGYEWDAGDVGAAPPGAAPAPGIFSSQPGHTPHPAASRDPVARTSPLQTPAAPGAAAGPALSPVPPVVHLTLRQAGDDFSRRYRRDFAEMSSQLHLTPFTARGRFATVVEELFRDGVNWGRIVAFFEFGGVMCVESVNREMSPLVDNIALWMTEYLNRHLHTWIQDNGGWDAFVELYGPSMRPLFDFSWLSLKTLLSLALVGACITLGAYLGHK

IC50, < 10 nM:
COc1ccc(CN2CCN(C3CC4(CCN(c5cc(Oc6cnc7[nH]ccc7c6)c(C(=O)NS(=O)(=O)c6cc([N+](=O)[O-])c(NCC7CCOCC7)c7ocnc67)cc5F)CC4)C3)[C@H](c3ccccc3C(C)C)C2)cc1 [compound 121, (R)-2-((1H-pyrrolo[2,3-b]pyrid-5-yl)oxy)-5-fluoro-4-(2-(2-(2-isopropylphenyl)-4-(4-methoxybenzyl)piperazin-1-yl)-7-azaspiro[3.5]non-7-yl)-N-((6-nitro-7-(((tetrahydro-2H-pyran-4-yl)methyl)amino)benzo[d]oxazol-4-yl)sulfonyl)benzamide]
CC(C)c1ccccc1[C@@H]1CCCN1C1CC2(CCN(c3ccc(C(=O)NS(=O)(=O)c4cc([N+](=O)[O-])c(NC[C@H]5CC[C@](C)(O)CC5)c5[nH]ccc45)c(Oc4cnc5[nH]ccc5c4)c3)CC2)C1 [compound 009, 2-((1H-pyrrolo[2,3-b]pyrid-5-yl)oxy)-N-((7-((((1r,4r)-4-hydroxy-4-methylcyclohexyl)methyl)amino)-6-nitro-1H-indol-4-yl)sulfonyl)-4-(2-((S)-2-(2-isopropylphenyl)pyrrolidin-1-yl)-7-azaspiro[3.5]non-7-yl)benzamide]
COc1cc(CN2CCN(C3CC4(CCN(c5ccc(C(=O)NS(=O)(=O)c6cc([N+](=O)[O-])c(NCC7(F)CCOCC7)c7c6OCO7)c(Oc6cnc7[nH]ccc7c6)c5)CC4)C3)[C@H](c3ccccc3C(C)C)C2)ccc1C1CC1 [compound 173, (R)-2-((1H-pyrrolo[2,3-b]pyrid-5-yl)oxy)-4-(2-(4-(4-cyclopropyl-3-methoxybenzyl)-2-(2-isopropylphenyl)piperazin-1-yl)-7-azaspiro[3.5]non-7-yl)-N-((7-(((4-fluorotetrahydro-2H-pyran-4-yl)methyl)amino)-6-nitrobenzo[d][1,3]dioxocyclopent-4-yl)sulfonyl)benzamide]
CC(C)c1ccccc1[C@@H]1CCCN1C1CC2(CCN(c3ccc(C(=O)NS(=O)(=O)c4cc([N+](=O)[O-])c(NCC5(F)CCN(C6COC6)CC5)c5[nH]cnc45)c(N4CCOc5nc6[nH]ccc6cc54)c3)CC2)C1 [compound 080, (S)-2-(2,3-dihydropyrrolo[3′,2′:5,6]pyridino[2,3-b][1,4]oxazin-1 (6H)-yl)-N-((7-(((4-fluoro-1-(oxocyclobut-3-yl)piperid-4-yl)methyl)amino)-6-nitro-1H-benzo[d]imidazol-4-yl)sulfonyl)-4-(2-(2-(2-isopropylphenyl)pyrrolidin-1-yl)-7-azaspiro[3.5]non-7-yl)benzamide]
COc1ccc(CN2CCN(C3CC4(CCN(c5cc(Oc6cnc7[nH]ccc7c6)c(C(=O)NS(=O)(=O)c6cc([N+](=O)[O-])c(NCC7(F)CCOCC7)c7c6OCC7)cc5F)CC4)C3)[C@H](c3ccccc3C(C)C)C2)cc1 [compound 142, (R)-2-((1H-pyrrolo[2,3-b]pyrid-5-yl)oxy)-5-fluoro-N-((4-(((4-fluorotetrahydro-2H-pyran-4-yl)methyl)amino)-5-nitro-2,3-dihydrobenzofuran-7-yl)sulfonyl)-4-(2-(2-(2-isopropylphenyl)-4-(4-methoxybenzyl)piperazin-1-yl)-7-azaspiro[3.5]non-7-yl)benzamide]
COc1ccc(CN2CCN(C3CC4(CCN(c5ccc(C(=O)NS(=O)(=O)c6cc([N+](=O)[O-])c(NCC7(F)CCOCC7)c7c6OC(F)(F)O7)c(Oc6cnc7[nH]ccc7c6)c5)CC4)C3)[C@H](c3ccccc3C(C)C)C2)cc1 [compound 164, (R)-2-((1H-pyrrolo[2,3-b]pyrid-5-yl)oxy)-N-((2,2-difluoro-7-(((4-fluorotetrahydro-2H-pyran-4-yl)methyl)amino)-6-nitrobenzo[d][1,3]dioxocyclopent-4-yl)sulfonyl)-4-(2-(2-(2-isopropylphenyl)-4-(4-methoxybenzyl)piperazin-1-yl)-7-azaspiro[3.5]non-7-yl)benzamide]
COc1ccc(CN2CCN(C3CC4(CCN(c5cc(Oc6cnc7[nH]ccc7c6)c(C(=O)NS(=O)(=O)c6cc([N+](=O)[O-])c(NCC7(F)CCOCC7)c7[nH]cnc67)cc5F)CC4)C3)C(c3ccccc3C(C)C)C2)cc1 (stereo not shown) [compound 078, 2-((1H-pyrrolo[2,3-b]pyrid-5-yl)oxy)-5-fluoro-N-((7-(((4-fluorotetrahydro-2H-pyran-4-yl)methyl)amino)-6-nitro-1H-benzo[d]imidazol-4-yl)sulfonyl)-4-(2-(2-(2-isopropylphenyl)-4-(4-methoxybenzyl)piperazin-1-yl)-7-azaspiro[3.5]non-7-yl)benzamide]
CC(C)c1ccccc1[C@@H]1CCCN1C1CC2(CCN(c3cc(Oc4cnc5[nH]ccc5c4)c(C(=O)NS(=O)(=O)c4cc([N+](=O)[O-])c(NCC5CCC(N(C)C)CC5)c5[nH]cnc45)cn3)CC2)C1 (stereo partly drawn) [compound 033, 4-((1H-pyrrolo[2,3-b]pyrid-5-yl)oxy)-N-((7-((((1S,4S)-4-(dimethylamino)cyclohexyl)methyl)amino)-6-nitro-1H-benzo[d]imidazol-4-yl)sulfonyl)-6-(2-((S)-2-(2-isopropylphenyl)pyrrolidin-1-yl)-7-azaspiro[3.5]non-7-yl) nicotinamide]
CC(C)c1ccccc1[C@@H]1CCCN1C1CC2(CCN(c3cc(Oc4cnc5[nH]ccc5c4)c(C(=O)NS(=O)(=O)c4cc([N+](=O)[O-])c(NCC5(F)CCN(C(C)C)CC5)c5[nH]cnc45)cn3)CC2)C1 [compound 021, (S)-4-((1H-pyrrolo[2,3-b]pyrid-5-yl)oxy)-N-((7-(((4-fluoro-1-isopropylpiperid-4-yl)methyl)amino)-6-nitro-1H-benzo[d]imidazol-4-yl)sulfonyl)-6-(2-(2-(2-isopropylphenyl)pyrrolidin-1-yl)-7-azaspiro[3.5]non-7-yl) nicotinamide]
CC(C)c1ccccc1[C@@H]1CCCN1C1CC2(CCN(c3cc(Oc4cnc5[nH]ccc5c4)c(C(=O)NS(=O)(=O)c4cc([N+](=O)[O-])c(NCC5(F)CCN(CC(F)(F)F)CC5)c5[nH]cnc45)cc3F)CC2)C1 [compound 032, (S)-2-((1H-pyrrolo[2,3-b]pyrid-5-yl)oxy)-5-fluoro-N-((7-(((4-fluoro-1-(2,2,2-trifluoroethyl)piperid-4-yl)methyl)amino)-6-nitro-1H-benzo[d]imidazol-4-yl)sulfonyl)-4-(2-(2-(2-isopropylphenyl)pyrrolidin-1-yl)-7-azaspiro[3.5]non-7-yl)benzamide]
COc1ccc(CN2CCN(C3CC4(CCN(c5cc(Oc6cnc7[nH]ccc7c6)c(C(=O)NS(=O)(=O)c6cc([N+](=O)[O-])c(NC[C@H]7CC[C@](C)(O)CC7)c7c6OCCO7)cc5F)CC4)C3)[C@H](c3ccccc3C(C)C)C2)cc1 [compound 118, 2-((1H-pyrrolo[2,3-b]pyrid-5-yl)oxy)-5-fluoro-N-((8-((((1r, 4r)-4-hydroxy-4-methylcyclohexyl)methyl)amino)-7-nitro-2,3-dihydrobenzo[b][1,4]dioxan-5-yl)sulfonyl)-4-(2-((R)-2-(2-isopropylphenyl)-4-(4-methoxybenzyl)piperazin-1-yl)-7-azaspiro[3.5]non-7-yl)benzamide]
COc1ccc(CN2C[C@@H](c3ccccc3C(C)C)N(C3CC4(CCN(c5cc(Oc6cnc7[nH]ccc7c6)c(C(=O)NS(=O)(=O)c6ccc(NCC7(F)CCOCC7)c([N+](=O)[O-])c6)cc5F)CC4)C3)C[C@H]2C)cc1 [compound 155, 2-((1H-pyrrolo[2,3-b]pyrid-5-yl)oxy)-5-fluoro-N-((4-(((4-fluorotetrahydro-2H-pyran-4-yl)methyl)amino)-3-nitrophenyl)sulfonyl)-4-(2-((2R,5R)-2-(2-isopropylphenyl)-4-(4-methoxybenzyl)-5-methylpiperazin-1-yl)-7-azaspiro[3.5]non-7-yl)benzamide]
COc1cc(CN2CCN(C3CC4(CCN(c5cc(Oc6cnc7[nH]ccc7c6)c(C(=O)NS(=O)(=O)c6ccc(NC[C@H]7CC[C@](C)(O)CC7)c([N+](=O)[O-])c6)cc5F)CC4)C3)[C@H](c3ccccc3C(C)C)C2)ccc1C1CC1 [compound 220, 2-((1H-pyrrolo[2,3-b]pyrid-5-yl)oxy)-4-(2-((R)-4-(4-cyclopropyl-3-methoxybenzyl)-2-(2-isopropylphenyl)piperazin-1-yl)-7-azaspiro[3.5]non-7-yl)-5-fluoro-N-((4-((((1r, 4r)-4-hydroxy-4-methylcyclohexyl)methyl)amino)-3-nitrophenyl)sulfonyl)benzamide]
COc1ccc(CN2CCN(C3CC4(CCN(c5cc(Oc6cnc7[nH]ccc7c6)c(C(=O)NS(=O)(=O)c6cc([N+](=O)[O-])c(NC[C@H]7CC[C@](C)(O)CC7)c7ocnc67)cn5)CC4)C3)[C@H](c3ccccc3C(C)C)C2)cc1 [compound 138, 4-((1H-pyrrolo[2,3-b]pyrid-5-yl)oxy)-N-((7-((((1r, 4r)-4-hydroxy-4-methylcyclohexyl)methyl)amino)-6-nitrobenzo[d]oxazol-4-yl)sulfonyl)-6-(2-((R)-2-(2-isopropylphenyl)-4-(4-methoxybenzyl)piperazin-1-yl)-7-azaspiro[3.5]non-7-yl) nicotinamide]
COc1ccc(CN2CCN(C3CC4(C3)CN(c3cc(Oc5cnc6[nH]ccc6c5)c(C(=O)NS(=O)(=O)c5cc([N+](=O)[O-])c(NC[C@H]6CC[C@](C)(O)CC6)c6[nH]cnc56)cn3)C4)C(c3ccccc3C(C)C)C2)cc1 (stereo partly shown) [compound 068, 4-((1H-pyrrolo[2,3-b]pyrid-5-yl)oxy)-N-((7-((((1r,4r)-4-hydroxy-4-methylcyclohexyl)methyl)amino)-6-nitro-1H-benzo[d]imidazol-4-yl)sulfonyl)-6-(6-(2-(2-isopropylphenyl)-4-(4-methoxybenzyl)piperazin-1-yl)-2-azaspiro[3.3]hept-2-yl) nicotinamide]
COc1ccc(CN2CCN(C3CC4(CCN(c5cc(Oc6cnc7[nH]ccc7c6)c(C(=O)NS(=O)(=O)c6cc([N+](=O)[O-])c(NC[C@H]7COCCO7)c7scnc67)cc5F)CC4)C3)[C@H](c3ccccc3C(C)C)C2)cc1 [compound 125]
